“Also recorded” adds a separate entry of the source.
Columns and labels:
[1] = tested on: paclitaxel binding site on tubulin; assay: Paclitaxel binding site inhibition assay ([3H]paclitaxel displacement); parameters: species or system bovine
Protocol: Paclitaxel binding site inhibition assay. A stock solution of [^3H]paclitaxel (26.8 μM, 16.2 Ci/mmol), obtained from the NCI, was prepared in 37% (v/v) DMSO. The test agents were prepared in 25% (v/v) DMSO-0.75 M monosodium glutamate (prepared from a 2M stock solution adjusted to pH 6.6 with HCl). The radiolabeled paclitaxel and test agents, as indicated in terms of final concentrations, were mixed in equal volumes and warmed to 37° C. A reaction mixture (50 μL) containing 0.75 M monosodium glutamate, 4.0 μM tubulin, and 40 μM ddGTP (a non-hydrolyzable analog of GTP) was prepared and incubated at 37° C. for 30 min to preform microtubules. An equivalent volume of drug mixture with [^3H]paclitaxel was added to preformed polymer and incubated for 30 min at 37° C. Bound [^3H]paclitaxel was separated from free drug by centrifugation of the reaction mixtures at 14000 rpm for 20 min at room temperature. Non-specific binding was determined by addition of a 12-fold excess of docetaxel. Radioactive counts from the supernatant (50 μL) were determined by scintillation spectrometry. Bound [^3H]paclitaxel was calculated from the following: total paclitaxel added to each reaction mixture minus the paclitaxel present in the supernatant (free drug). The % bound values were normalized to the control values with no inhibitor added.

PC3 (prostate) = assay: Cell growth inhibition, PC3 (prostate); type: cell-based; details: Homo sapiens, 72 h, read-out: GI50 (μM) PC3 (prostate)
Protocol: (§1) Cell Growth Inhibition[34] Cells were plated (500–2000 cells/well depending on the cell line) in 96-well microplates, allowed to attach and grow for 48 h, then treated with vehicle (4% DMSO, a concentration that allowed doubling times of 24 h or less) or test agent (50, 10, 2, 0.4 and 0.08 μM for the new agents; 0.001, 0.005, 0.010, 0.020 and 0.100 μM for paclitaxel and discodermolide) for the given times. One plate consisted of cells from each line used for a time zero cell number determination. The other plates in a given determination contained eight wells of control cells, eight wells of medium and each agent concentration tested in quadruplicate. Cell numbers were obtained spectrophotometrically (absorbance at 490 nm minus that at 630 nm) in a Dynamax plate reader after treatment with 3-(4,5-dimethylthiazol-2-yl)-5-(3-carboxymethoxyphenyl)-2-(4-sulfophenyl)-2H-tetrazolium (MTS) using phenazine methanesulfonate as the electron acceptor. After initial screening with the above 5-fold dilutions, fifty percent growth inhibitory concentration (GI50) values were determined for each agent by repeating the screen using 2-fold dilutions (five concentrations) centered on the initial estimated GI50 concentration, again in quadruplicate.

2008 (ovarian) = assay: Cell growth inhibition, 2008 (ovarian); type: cell-based, human; details: for GI50: Homo sapiens, 72 h, read-out: GI50 (μM) 2008 (ovarian); for 50% growth inhibitory concentration: human ovarian cancer cells
Protocol: as §1

tubulin = assay: Tubulin polymerization (microtubule stabilizing activity); type: biochemical, bovine; details: in comparison to 10 μM paclitaxel; turbidity, cold-induced disassembly
Protocol: Tubulin Polymerization.[32] Tubulin assembly was followed in a Beckman-Coulter 7400 spectrophotometer, equipped with an electronic Peltier temperature controller, reading absorbance (turbidity) at 350 nm. Reaction mixtures (0.25 mL final volume) contained tubulin (final concentration 10 μM; 1 mg/mL), monosodium glutamate (0.8 M from a stock solution adjusted to pH 6.6 with HCl), DMSO (final volume 4% v/v), and differing concentrations of test agent where indicated. Reaction mixtures without test agent were cooled to 0° C. and added to cuvettes held at 0.25–0.5° C. in the spectrophotometer. Test agent in DMSO was then rapidly mixed in the reaction mixture. Each run contained one positive control (paclitaxel, 10 μM final concentration) and one negative control (DMSO only). Baselines were established at 0.25–2.5° C. and temperature was rapidly raised to 30° C. (in approximately 1 min) and held there for 20 min.

MDA-MB231 (breast) = assay: Cell growth inhibition, MDA-MB231 (breast); type: cell-based, human; details: for GI50: Homo sapiens, MDA-MB-231, 72 h, read-out: GI50 (μM) MDA-MB231 (breast); for 50% growth inhibitory concentration: human breast cancer cells
Protocol: as §1

| SMILES | Tubulin polymerization-inducing properties (FIGS. 6A-D, in words) (tubulin) | 50% growth inhibitory concentration (MDA-MB231 (breast)) | 50% growth inhibitory concentration (2008 (ovarian)) | also measured |
| --- | --- | --- | --- | --- |
| C=C/C=C\[C@H](C)[C@H](OC(N)=O)[C@@H](C)[C@H](O)CC/C=C\[C@H](C)[C@H](O)[C@@H](C)/C=C\CC[C@@H]1OC(=O)[C@H](C)[C@@H](OCOC)[C@H]1C [Compound 41, Carbamic acid, (1S,2S,3R,6Z,8S,9S,10S,11Z)-3,9-dihydroxy-14-[(2S,3S,4S,5R)-4-methoxymethoxy-3,5-dimethyl-6-oxotetrahydropyran-2-yl]-2,8,10-trimethyl-1-[(1S,2Z)-1-methylpenta-2,4-dienyl]tetradeca-6,11-dienyl ester] | more rapid polymer-inducing and cold-resistant properties; also recorded: most potent among these analogs | submicromolar | – | Displacement of [3H]paclitaxel from microtubules (in words) ([1]; 2-fold molar excess of test agent): better than paclitaxel and at almost the same potency as discodermolide; GI50 (PC3 (prostate)): 1.8 ± 0.9 µM; GI50 (2008 (ovarian)): 0.65 ± 0.25 µM; GI50 (MDA-MB231 (breast)): 0.87 ± 0.21 µM |
| C=C/C=C\[C@H](C)[C@H](OC(N)=O)[C@@H](C)[C@H](O)CC/C=C\[C@H](C)[C@H](O)[C@@H](C)/C=C\CC[C@@H]1O[C@@H](OC)[C@H](C)[C@@H](OCOC)[C@H]1C [Compound 42, Carbamic acid, (1S,2S,3R,6Z,8S,9S,10S,11Z)-3,9-dihydroxy-14-[(2S,3S,4S,5R,6R)-6-methoxy-4-methoxymethoxy-3,5-dimethyltetrahydropyran-2-yl]-2,8,10-trimethyl-1-[(1S,2Z)-1-methylpenta-2,4-dienyl]tetradeca-6,11-dienyl ester] | more rapid polymer-inducing and cold-resistant properties | – | – | GI50 (PC3 (prostate)): 15 ± 3 µM; GI50 (2008 (ovarian)): 4.7 ± 0.6 µM; GI50 (MDA-MB231 (breast)): 3.4 ± 0.8 µM |
| C=CC=C[C@H](C)[C@H]1OC(=O)CCCCCCCCC=C[C@H](C)[C@H](O)[C@@H](C)C=CCC[C@@H](O)[C@H]1C [Compound 43, (1S,13S,14S,15S,20R,21R,22R)-14,20-Dihydroxy-13,15,21-trimethyl-22-(1-methylpenta-2,4-dienyl)-oxacyclodocosa-11,16-dien-2-one] | – | 15 to 30 µM | 15 to 30 µM | – |
| C=CC=C[C@H](C)[C@@H](O)[C@H](C)[C@H](O)CCC=C[C@H](C)[C@@H](O)[C@@H](C)C=CCCCCCCCCCO [Compound 47, (12S,13S,14S,19R,20R,21R,22S)-12,14,20,22-Tetramethylhexacosa-10,15,23,25-tetraene-1,13,19,21-tetraol] | – | 15 to 30 µM | 15 to 30 µM | – |
| C=CC=C[C@H](C)[C@@H](O)[C@H](C)[C@H](O)CCC=C[C@H](C)[C@@H](O)[C@@H](C)C=CCCCCCCCCC(=O)OC [Compound 48, (12S,13S,14S,19R,20R,21R,22S)-13,19,21-Trihydroxy-12,14,20,22-tetramethylhexacosa-10,15,23,25-tetraenoic acid methyl ester] | – | 15 to 30 µM | 15 to 30 µM | – |
| C=CC=C[C@H](C)[C@@H](O)[C@H](C)[C@H](O)CCC=C[C@H](C)[C@@H](O)[C@@H](C)C=CCCCCCCCCC(=O)O [Compound 49, (12S,13S,14S,19R,20R,21R,22S)-13,19,21-Trihydroxy-12,14,20,22-tetramethylhexacosa-10,15,23,25-tetraenoic acid] | – | > 50 µM | > 50 µM | – |
| C=CC=CC(C)[C@H]1OC(=O)C=CC=C[C@@H](C)[C@H](O)CCC=C[C@H](C)[C@H](O)[C@@H](C)C=CCC[C@@H](O)[C@H]1C (stereo partly drawn) [Compound 54, (7R,8R,13S,14S,15S,20R,21R,22R,23S)-8,14,20-Trihydroxy-7,13,15,21-tetramethyl-22-(1-methylpenta-2,4-dienyl)-oxacyclodocosa-3,5,11,16-tetraen-2-one] | – | about 1 μM | about 1 μM | [3H]paclitaxel displacement potency relative to discodermolide ([1]; [3H]paclitaxel stoichiometrically bound to microtubules): about ⅓ |
| C=C/C=C\[C@H](C)[C@H](OC(N)=O)[C@@H](C)[C@H](O)[C@@H](C)C/C(C)=C\[C@H](C)[C@@H](O)[C@@H](C)/C=C\[C@@H](O)C[C@@H]1OC(=O)[C@H](C)[C@@H](O)[C@H]1C [discodermolide, (+)-discodermolide] | superior to paclitaxel | – | – | – |
